Each block holds one molecule with its values, some of them ahead of it.
What was measured:
[1] = test system: Human immunodeficiency virus 1; assay: Anti-viral activity against wild type HIV1 strain IIIB infected in human MT2 cells assessed as protection of cells from infection; type: functional, organism-based; conditions: Human immunodeficiency virus 1, IIIB
[2] = target: Human immunodeficiency virus type 1 reverse transcriptase (Human immunodeficiency virus 1, UniProt Q72547); assay: Inhibition of HIV1 reverse transcriptase using r(A)350 template and d(T)16 primer as substrate preincubated for 1 hr before adding substrate by PicoGreen EnzChek Reverse Transcriptase Assay
[3] = test system: MT2; assay: Cytotoxicity against human MT2 cells assessed as inhibition of cell growth; type: toxicity, cell-based
[4] = Therapeutic index, ratio of CC50 for cytotoxicity against human MT2 cells to EC50 for antiviral activity against wild type HIV1 strain IIIB infected in human MT2 cells assessed as protection of cells from infection; type: toxicity, cell-based; conditions: read-out: TI

Compound: N#Cc1cc(Cl)cc(Oc2ccc(Cl)cc2OCCn2cc(Cl)c(=O)[nH]c2=O)c1
EC50 [1]: 17 nM

Compound: C=CC(=O)NCCOc1cc(Cl)ccc1Oc1cc(Cl)cc(C#N)c1
EC50 [1]: 12500 nM
IC50 [2]: 60000 nM
CC50 [3]: 42 µM

Compound: N#Cc1cc(Cl)cc(Oc2ccc(Cl)cc2OCc2ccccc2)c1
EC50 [1]: 41000 nM
IC50 [2]: 1300 nM
CC50 [3]: > 100 µM

Compound: C=CC(=O)N(C)CCOc1cc(Cl)ccc1Oc1cc(Cl)cc(C#N)c1
EC50 [1]: 400 nM
IC50 [2]: 60 nM
CC50 [3]: 27 µM

Compound: C=CC(=O)n1c(=O)n(CCOc2ccccc2Oc2cccc3cc(C#N)ccc23)c2ccccc21
EC50 [1]: 1 nM
IC50 [2]: < 5 nM
selectivity ratio [4]: 9000
CC50 [3]: 4.5 µM

Compound: N#Cc1cc2c(Oc3ccccc3OCCC(=O)NCC(F)F)cccn2c1
EC50 [1]: 2100 nM
IC50 [2]: 1300 nM
CC50 [3]: > 100 µM

Compound: C=CC(=O)N(C)CCOc1cc(Cl)ccc1Oc1cccn2cc(C#N)cc12
EC50 [1]: 28 nM
IC50 [2]: 26 nM
CC50 [3]: 30 µM

Compound: N#Cc1ccc2c(Oc3ccccc3OCCC(=O)N3CCCC3)cccc2c1
EC50 [1]: 14 nM
IC50 [2]: 20 nM
CC50 [3]: 20 µM

Compound: CN(CCOc1ccc(Cl)c(Oc2cc(Cl)cc(C#N)c2)c1)C(=O)CCl
IC50 [2]: 1200 nM
CC50 [3]: 1.3 µM

Compound: C=CC(=O)NCCc1ccc(Cl)c(Oc2cc(Cl)cc(C#N)c2)c1
EC50 [1]: 3100 nM
IC50 [2]: 400 nM
CC50 [3]: 29 µM

Compound: C=CC(=O)N(C)CCOc1cc(Cl)ccc1Oc1cccc2cc(C#N)ccc12
EC50 [1]: 17 nM
IC50 [2]: 25 nM
CC50 [3]: 16 µM

Compound: N#Cc1cc(Cl)cc(Oc2cc(OCCNC(=O)CCl)ccc2Cl)c1
IC50 [2]: 2750 nM
CC50 [3]: 5.8 µM

Compound: CN(C)C(=O)CCOc1ccccc1Oc1cccc2cc(C#N)ccc12
EC50 [1]: 3 nM
IC50 [2]: 20 nM
CC50 [3]: 33 µM

Compound: C=CC(=O)n1c(=O)n(CCOc2cc(Cl)ccc2Oc2cc(Cl)cc(C#N)c2)c2ccccc21
EC50 [1]: 470 nM
IC50 [2]: 150 nM
CC50 [3]: 8 µM

Compound: C=CC(=O)N(C)CCOc1ccc(Cl)c(Oc2cc(Cl)cc(C#N)c2)c1
EC50 [1]: 10000 nM
IC50 [2]: 750 nM
CC50 [3]: 17 µM

Compound: C=CC(=O)N(C)CCOc1ccc(Cl)c(Oc2cccc3cc(C#N)ccc23)c1
EC50 [1]: 8500 nM
IC50 [2]: < 10 nM
CC50 [3]: 25 µM

Compound: CN(CCc1ccc(Cl)c(Oc2cc(Cl)cc(C#N)c2)c1)C(=O)CCl
IC50 [2]: 4400 nM
CC50 [3]: 0.47 µM

Compound: N#Cc1cc(Cl)cc(Oc2ccc(Cl)cc2OCCc2ccccc2)c1
EC50 [1]: 3100 nM
IC50 [2]: 60 nM
CC50 [3]: > 100 µM

Compound: C=CC(=O)Nc1cccc(COc2cc(Cl)ccc2Oc2cc(Cl)cc(C#N)c2)c1
IC50 [2]: 900 nM
CC50 [3]: 19 µM

Compound: N#Cc1cc2c(Oc3ccccc3OCCC(=O)N3CCOCC3)cccn2c1
EC50 [1]: 190 nM
IC50 [2]: 60 nM
CC50 [3]: > 100 µM

Compound: C=CC(=O)NCCOc1ccc(Cl)c(Oc2cc(Cl)cc(C#N)c2)c1
IC50 [2]: 1100 nM
CC50 [3]: 32 µM

Compound: C=CC(=O)Nc1cccc(CCOc2cc(Cl)ccc2Oc2cc(Cl)cc(C#N)c2)c1
EC50 [1]: 3600 nM
IC50 [2]: 60 nM
CC50 [3]: 17 µM

Compound: C=CC(=O)N(C)CCOc1ccccc1Oc1cccn2cc(C#N)cc12
EC50 [1]: 3 nM
IC50 [2]: < 10 nM
CC50 [3]: 8.8 µM

Compound: C=CC(=O)N(C)CCc1ccc(Cl)c(Oc2cc(Cl)cc(C#N)c2)c1
EC50 [1]: 6200 nM
IC50 [2]: 500 nM
CC50 [3]: 50 µM

Compound: N#Cc1cc2c(Oc3ccccc3OCCC(=O)N3CCCC3)cccn2c1
EC50 [1]: 17 nM
IC50 [2]: 20 nM
CC50 [3]: > 100 µM

Compound: CN(C)C(=O)CCOc1ccccc1Oc1cccn2cc(C#N)cc12
EC50 [1]: 36 nM
IC50 [2]: 20 nM
CC50 [3]: > 100 µM

Compound: N#Cc1cc(Cl)cc(Oc2cc(CCNC(=O)CCl)ccc2Cl)c1
IC50 [2]: 750 nM
CC50 [3]: 2.7 µM

Compound: C=CC(=O)N(C)CCOc1ccccc1Oc1cc(Cl)cn2cc(C#N)cc12
EC50 [1]: 48 nM
IC50 [2]: 20 nM
CC50 [3]: 33 µM

EC50 [1]: 1 nM
IC50 [2]: < 10 nM
Compound: C=CC(=O)N(C)CCOc1ccccc1Oc1cccc2cc(C#N)ccc12
CC50 [3]: 4 µM

Compound: C=CS(=O)(=O)CCOc1ccc(Cl)c(Oc2cc(Cl)cc(C#N)c2)c1
EC50 [1]: 5700 nM
IC50 [2]: 8000 nM
CC50 [3]: 7.5 µM

Compound: C=CS(=O)(=O)CCc1ccc(Cl)c(Oc2cc(Cl)cc(C#N)c2)c1
IC50 [2]: 100000 nM
CC50 [3]: 6 µM

Compound: C=CC(=O)N(C)CCOc1ccc(Cl)c(Oc2cccn3cc(C#N)cc23)c1
EC50 [1]: 3900 nM
IC50 [2]: 70 nM
CC50 [3]: 31 µM

Compound: N#Cc1cc(Cl)cc(Oc2ccc(Cl)cc2OCCc2cccc(S(=O)(=O)F)c2)c1
EC50 [1]: 45000 nM
IC50 [2]: 150 nM
CC50 [3]: 70 µM

Compound: C=CS(=O)(=O)c1cccc(CCOc2cc(Cl)ccc2Oc2cc(Cl)cc(C#N)c2)c1
IC50 [2]: 9000 nM
CC50 [3]: 16 µM
